Our source for the MIC, inhibition and IC50 values is ChEMBL document CHEMBL3808370, “Nortriketones: Antimicrobial Trimethylated Acylphloroglucinols from Ma̅nuka (Leptospermum scoparium)” (J Nat Prod, 2016).

Assay [1] concerns Enterococcus faecalis. The assay can be described thus: Antibacterial activity against vancomycin-resistant Enterococcus faecalis incubated for 18 to 24 hrs by broth microdilution method. Format: functional.
Assay [2] has as its system Staphylococcus aureus. As to the kind of experiment: Antibacterial activity against methicillin-resistant Staphylococcus aureus by two-fold broth dilution method. Format: functional.
Assay [3] deals with Escherichia coli. The assay can be described thus: Antibacterial activity against Escherichia coli. Type of assay: functional.
The target in assay [4] is T1, 4-hydroxyphenylpyruvate dioxygenase (Arabidopsis thaliana) (UniProt P93836).
T1 sequence (whole entry): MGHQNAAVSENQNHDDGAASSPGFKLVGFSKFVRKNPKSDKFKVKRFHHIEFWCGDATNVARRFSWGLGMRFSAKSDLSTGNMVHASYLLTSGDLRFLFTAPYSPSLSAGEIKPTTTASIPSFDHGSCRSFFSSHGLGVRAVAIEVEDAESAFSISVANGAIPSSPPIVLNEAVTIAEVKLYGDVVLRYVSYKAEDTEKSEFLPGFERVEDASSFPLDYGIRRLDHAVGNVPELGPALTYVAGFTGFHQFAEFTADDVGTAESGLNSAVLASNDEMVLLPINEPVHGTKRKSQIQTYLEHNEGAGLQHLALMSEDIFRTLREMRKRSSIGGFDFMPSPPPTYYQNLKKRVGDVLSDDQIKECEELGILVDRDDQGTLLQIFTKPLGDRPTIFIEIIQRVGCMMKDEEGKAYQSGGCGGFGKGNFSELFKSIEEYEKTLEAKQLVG
The assay can be described thus: Inhibition of recombinant Arabidopsis thaliana HPPD overexpressed in Escherichia coli JM105 cells at 100 uM using 4-HPP as substrate preincubated for 15 mins followed by substrate addition and subsequent incubation for 15 mins by HPLC analysis.

Assay [5] deals with T2, 4-hydroxyphenylpyruvate dioxygenase (Arabidopsis thaliana, UniProt P93836).
T2 sequence (P93836 whole entry): T1 sequence (whole entry)
As to the kind of experiment: Inhibition of recombinant Arabidopsis thaliana HPPD overexpressed in Escherichia coli JM105 cells using 4-HPP as substrate preincubated for 15 mins followed by substrate addition and subsequent incubation for 15 mins by HPLC analysis. The conditions noted are these: read-out: I50.

In brackets after ≈: the same amount, converted by molar mass. Activity calls are given as the source filed them. The calls are words filed in the database; no cut-off is given here.

As a reminder, the MIC is the lowest concentration found to suppress growth.

As to `CC1=C(O)C(C)(C)C(=O)C(C(=O)CCc2ccccc2)=C1O`, the minimal inhibitory concentration (MIC) in assay [1] is 64 µg/mL (≈ 213 µM); in assay [2], 64 µg/mL (≈ 213 µM); in assay [3], above 512 µg/mL. In addition, the inhibition result in assay [4] is “inactive”.

For the molecule `CC1=C(O)C(C)(C)C(=O)C(C(=O)C(C)C)=C1O`, the inhibition entry in assay [4] was “inactive”.

Consider `CC1=C(O)C(C)(C)C(=O)C(C(=O)CC(C)C)=C1O`, for which the inhibition entry in assay [4] is “inactive”.

As to `CC1(C)C(=O)C(C(=O)CCc2ccccc2)=C(O)C(C)(C)C1=O`, the MIC is 6 µg/mL (≈ 19.1 µM) in assay [1], 6 µg/mL (≈ 19.1 µM) in assay [2] and above 512 µg/mL in assay [3]. Besides, the IC50 in assay [5] amounted to 750 nM.
